Laboratory results taken from patent US10287271B2, “Indole compounds having antiprotozoal activity and its use as well as methods for producing the same” (TECHNISCHE UNIVERSITAET BRAUNSCHWEIG, priority 2015, dated 2019).

Test system: NF54-luc P. falciparum
Test: luciferase-based viability assay, erythrocytic stages of transgenic NF54-luc P. falciparum
Type: cell-based, Plasmodium falciparum
Conditions: for inhibition at 3 µM / inhibition at 30 µM / EC50: Plasmodium falciparum; for inhibition at 3 µM / inhibition at 30 µM: NF54, 48 hours; for inhibition at 3 µM: 3 μM test compound; for inhibition at 30 µM: 30 μM test compound; for EC50: erythrocytic stages NF54-luc, 48 hours incubation, titration
Procedure: Erythrocytic stages of transgenic NF54-luc P. falciparum were used for the luciferase-based viability assay. First, the culture was dispensed in triplicate into white 96-well flat bottom plates (each well contains 250 ul) (NUNC, Denmark) with parasitemia of 0.5-1%. Then the cultures were incubated in the presence of a 30 μM concentration of the test compounds for 48 hours (37° C., 90% N2, 5% CO2, and 5% O2). Subsequently, 100 ul RPMI1640 media was removed from each well and a 100 μL volume of the Bright-Glo® substrate solution was added to each well. One of the cleavage products of the reaction is light, which was measured by a FLUOROSKAN FL luminometer (Thermo) machine; thereby detecting the amount of living parasites. In case the inhibition of the proliferation exceeded 50%, the experiments were repeated with 3 μM solutions. […] The EC50 value is the half maximal effective concentration (the concentration at which half maximal inhibition is observed). Untreated cultures were used as negative controls and to calculate the inhibition rate (0% inhibition of parasite growth). Blasticidin (Sigma-Aldrich, St. Louis, Mo.), a drug used for selection of transfected parasites, was included as a positive control on each plate and gave >90% inhibition of parasite growth at 2 μg/mL.

SMILES | inhibition at 3 µM [%] | inhibition at 30 µM [%] | EC50 [µM] | inhibition of parasite growth (positive control at 2 μg/mL) [%]
O=c1c(-c2c[nH]c3ccccc23)c(-c2c[nH]c3ccc(I)cc23)c1=O [KuHL117, 3-(1H-indol-3-yl)-4-(5-iodo-1H-indol-3-yl)cyclobut-3-ene-1,2-dione] | 31.3 ± 2.7 | – | – | –
COc1ccc2[nH]cc(-c3c(-c4c(-c5ccccc5)[nH]c5ccccc45)c(=O)c3=O)c2c1 [KuHL058, 3-(5-Methoxy-1H-indol-3-yl)-4-(2-phenyl-1H-indol-3-yl)cyclobut-3-ene-1,2-dione] | 22.4 ± 2.7 | – | – | –
O=c1c(-c2c[nH]c3ccccc23)c(-c2c[nH]c3ccc(Cl)cc23)c1=O [KuHL118, 3-(5-Chloro-1H-indol-3-yl)-4-(1H-indol-3-yl)cyclobut-3-ene-1,2-dione] | 44.7 ± 0.5 | – | – | –
COc1ccc2[nH]cc(-c3c(-c4c(C)[nH]c5ccccc45)c(=O)c3=O)c2c1 [KuHL018, 3-(5-Methoxy-1H-indol-3-yl)-4-(2-methyl-1H-indol-3-yl)cyclobut-3-en-1,2-dione] | 34.2 ± 8 | 99.6 ± 0.2 | 10 | –
Cc1[nH]c2ccccc2c1-c1c(-c2cn(C)c3ccccc23)c(=O)c1=O [KuHL050, 3-(1-Methyl-1H-indol-3-yl)-4-(2-methyl-1H-indol-3-yl)cyclobut-3-ene-1,2-dione] | 59.6 ± 0.2 | 99.3 ± 0.3 | 2.67 | –
Cc1[nH]c2ccccc2c1-c1c(-c2cn(C)c3ccc(Br)cc23)c(=O)c1=O [KuHL077, 3-(5-Bromo-1-methyl-1H-indol-3-yl)-4-(2-methyl-1H-indol-3-yl)cyclobut-3-ene-1,2-dione] | 12.7 ± 2.8 | – | – | –
Cc1[nH]c2ccccc2c1-c1c(-c2c(C)[nH]c3ccccc23)c(=O)c1=O [KuHL012, 3,4-Bis(2-methyl-1H-indol-3-yl)cyclobut-3-ene-1,2-dione] | 18.3 ± 6.3 | 77.8 ± 5.9 | – | –
CN(CC[C@H](N)CC(=O)N[C@H]1C=C[C@H](n2ccc(N)nc2=O)O[C@@H]1C(=O)O)C(=N)N [Blasticidin, reference compound] | – | – | – | > 90
COc1ccc2[nH]cc(-c3c(-c4cn(C)c5ccccc45)c(=O)c3=O)c2c1 [KuHL057, 3-(5-Methoxy-1H-indol-3-yl)-4-(1-methyl-1H-indol-3-yl)cyclobut-3-ene-1,2-dione] | – | 13.6 ± 3.9 | – | –
Cn1cc(-c2c(-c3c(-c4ccccc4)[nH]c4ccccc34)c(=O)c2=O)c2ccccc21 [KuHL072, 3-(1-Methyl-1H-indol-3-yl)-4-(2-phenyl-1H-indol-3-yl)cyclobut-3-ene-1,2-dione] | 67.7 ± 0.7 | – | 1.72 | –
COc1ccc2[nH]cc(-c3c(-c4c[nH]c5ccc(Cl)cc45)c(=O)c3=O)c2c1 [KuHL102, 3-(5-Chloro-1H-indol-3-yl)-4-(5-methoxy-1H-indol-3-yl)cyclobut-3-ene-1,2-dione] | 87 ± 0.5 | – | 1.52 | –
Cn1cc(-c2c(-c3c[nH]c4ccccc34)c(=O)c2=O)c2ccccc21 [KuHL032, 3-(1H-Indol-3-yl)-4-(1-methyl-1H-indol-3-yl)cyclobut-3-ene-1,2-dione] | 52 ± 1.8 | 98.7 ± 1.1 | 2.97 | –
N#Cc1ccc2[nH]cc(-c3c(-c4c[nH]c5ccccc45)c(=O)c3=O)c2c1 [KuHL122, 3-[2-(1H-Indol-3-yl)-3,4-dioxocyclobut-1-ene-1-yl]-1H-indol-5-carbonitrile] | 26.8 ± 1.6 | – | – | –
Cc1[nH]c2ccccc2c1-c1c(-c2c(-c3ccccc3)[nH]c3ccccc23)c(=O)c1=O [KuHL026, 3-(2-Methyl-1H-indol-3-yl)-4-(2-phenyl-1H-indol-3-yl)cyclobut-3-ene-1,2-dione] | 41.1 ± 1.7 | 98.4 ± 0.5 | 9.26 | –
O=c1c(-c2c(-c3ccccc3)[nH]c3ccccc23)c(-c2c(-c3ccccc3)[nH]c3ccccc23)c1=O [KuHL009, 3,4-Bis(2-phenyl-1H-indol-3-yl)cyclobut-3-ene-1,2-dione] | 41.1 ± 0.6 | 98.9 ± 0.8 | 2.47 | –
COc1ccc2[nH]cc(-c3c(-c4c[nH]c5ccc(OCc6ccccc6)cc45)c(=O)c3=O)c2c1 [KuHL136, 3-[5-(Benzyloxy)-1H-indol-3-yl]-4-(5-methoxy-1H-indol-3-yl)cyclobut-3-ene-1,2-dione] | 21.7 ± 2.5 | – | – | –
O=c1c(-c2c[nH]c3ccccc23)c(-c2c[nH]c3ccc(Br)cc23)c1=O [KuHL037, 3-(5-Bromo-1H-indol-3-yl)-4-(1H-indol-3-yl)cyclobut-3-ene-1,2-dione] | 65.9 ± 1.8 | 99.5 ± 0.4 | 3.02 | –
Cc1[nH]c2ccccc2c1-c1c(-c2c[nH]c3ccc(Br)cc23)c(=O)c1=O [KuHL027, 3-(5-Bromo-1H-indol-3-yl)-4-(2-methyl-1H-indol-3-yl)cyclobut-3-ene-1,2-dione] | 45.6 ± 1.8 | 99.3 ± 0.4 | 30.5 | –
COc1ccc2[nH]cc(-c3c(-c4c[nH]c5ccccc45)c(=O)c3=O)c2c1 [KuHL049, 3-(1H-Indol-3-yl)-4-(5-methoxy-1H-indol-3-yl)cyclobut-3-ene-1,2-dione] | 18.3 ± 5 | – | – | –
COc1ccc2[nH]cc(-c3c(-c4c[nH]c5ccc(F)cc45)c(=O)c3=O)c2c1 [KuHL113, 3-(5-Fluoro-1H-indol-3-yl)-4-(5-methoxy-1H-indol-3-yl)cyclobut-3-ene-1,2-dione] | 19.3 ± 3.1 | – | – | –
O=c1c(-c2c[nH]c3ccccc23)c(-c2c(-c3ccccc3)[nH]c3ccccc23)c1=O [KuHL044, 3-(1H-Indol-3-yl)-4-(2-phenyl-1H-indol-3-yl)cyclobut-3-ene-1,2-dione] | 65 ± 2.8 | 99.7 ± 0.1 | 6.38 | –
COc1ccc2[nH]cc(-c3c(-c4c[nH]c5ccc(Br)cc45)c(=O)c3=O)c2c1 [KuHL047, 3-(5-Bromo-1H-indol-3-yl)-4-(5-methoxy-1H-indol-3-yl)cyclobut-3-ene-1,2-dione] | 100 | 98.8 ± 0.7 | 0.47 | –
COc1ccc2[nH]cc(-c3c(-c4c[nH]c5ccc(OC)cc45)c(=O)c3=O)c2c1 [KuHL048, 3,4-Bis(5-methoxy-1H-indol-3-yl)cyclobut-3-ene-1,2-dione] | 19.7 ± 3.6 | 79.3 ± 1.3 | – | –
O=c1c(-c2c[nH]c3ccc(Br)cc23)c(-c2c(-c3ccccc3)[nH]c3ccccc23)c1=O [KuHL071, 3-(5-Bromo-1H-indol-3-yl)-4-(2-phenyl-1H-indol-3-yl)cyclobut-3-ene-1,2-dione] | 16 ± 0.7 | – | – | –
O=c1c(-c2c[nH]c3ccccc23)c(-c2c[nH]c3ccccc23)c1=O [KuHL043, 3,4-Bis(1H-indol-3-yl)cyclobut-3-ene-1,2-dione] | 17.9 ± 3.3 | 99.2 ± 0.2 | 8.33 | –
COc1ccc2[nH]cc(-c3c(-c4c[nH]c5ccc(C#N)cc45)c(=O)c3=O)c2c1 [KuHL103, 3-[2-(5-Methoxy-1H-indol-3-yl)-3,4-dioxocyclobut-1-ene-1-yl]-1H-indol-5-carbonitrile] | 26.8 ± 1.1 | – | – | –
COc1ccc2[nH]cc(-c3c(-c4c[nH]c5ccc(I)cc45)c(=O)c3=O)c2c1 [KuHL101, 3-(5-Iodo-1H-indol-3-yl)-4-(5-methoxy-1H-indol-3-yl)cyclobut-3-ene-1,2-dione] | 99.1 ± 0.4 | – | 0.65 | –
Cc1[nH]c2ccccc2c1-c1c(-c2c[nH]c3ccccc23)c(=O)c1=O [KuHL025, 3-(1H-Indol-3-yl)-4-(2-methyl-1H-indol-3-yl)cyclobut-3-ene-1,2-dione] | 23.4 ± 5.4 | 98.8 ± 0.5 | > 30 | –
